Converted amounts (≈) assume the structure as drawn.

Series [1] relates to Mycobacterium tuberculosis. As to the kind of experiment: MMV: CRC and MIC90 against Mtb (replicating). The format is functional.
The test system of series [2] is Mycobacterium tuberculosis. Description: MMV: Screen against Mtb, single point, non replicating, at 25uM. It counts as functional.
Series [3] relates to Mycobacterium tuberculosis. Description: MMV: Screen against Mtb, single point, replicating, at 25uM. The format is functional.
The test system of series [4] is Mycobacterium tuberculosis. As to the kind of experiment: MMV: CRC and MIC90 against Mtb (non replicating). The format is functional.
Series [5] in a line: MMV: Cytotoxicity CRC and LD50 against HepG2. The format is toxicity, cell-based. The note with it: human, HepG2 cells; read-out: LD50 (the source's name).

The term MIC90 denotes an inhibitory concentration at the 90% level, which refers to growth in some studies and to a panel of isolates in others. A higher MIC90 goes with weaker potency. For orientation: inhibition means the change of the read-out against control, counted positive when it falls. For the compound `CN1CCN(c2ccc(Nc3c4ccccc4nc4ccccc34)cc2)CC1`, the values for the MIC90 in series [1] and in series [4] were 45.1 µM (≈ 16.6 µg/mL) and 27.7 µM (≈ 10.2 µg/mL), respectively. For the same compound, the inhibition at 25 µM in series [2] was 44.1%; in series [3], 63.8%. Besides, the CC50 in series [5] amounted to 0.654 µM.
The corresponding values for `O=C(Nc1ccc(Cl)c(Cl)c1)Nc1ccc(Cl)c(Cl)c1` are 3.89 µM (≈ 1.36 µg/mL), 10.3 µM (≈ 3.61 µg/mL), 99.8%, 92.6% and 6.5 µM.
Take `COc1ccc(Nc2nc(N/N=C/c3ccc(O)cc3)nc(Nc3ccc([N+](=O)[O-])cc3)n2)cc1`: the inhibition at 25 µM was determined as 31.8% in series [2] and 15.3% in series [3].
The corresponding values for `Nc1nc(Nc2cccc(F)c2)nc2ccccc12` are 9.12% and 13.4%.
The matching figures for `COc1ccc(-c2nc(N3CCN(C(=O)C4CCCCC4)CC3)c3c4c(sc3n2)CCCC4)cc1`: 12.7% and 14.2%.
Consider `O=C(NC1CCN(Cc2ccccc2)CC1)c1cc2nc(-c3ccc(Cl)s3)cc(C(F)(F)F)n2n1`, for which the inhibition at 25 µM was determined as 15.3% in series [2] and 20.1% in series [3].
The corresponding values for `Cc1sc(NC(=O)c2ccccc2)c(C(c2cccs2)N2CCN(c3ccccc3)CC2)c1C` (configuration not stated) are 13% and 7.6%.
The corresponding values for `Cc1sc(NC(=O)c2ccco2)c(C(c2cccnc2)N2CCC(Cc3ccccc3)CC2)c1C` (configuration not stated) are -1.7% and 21.7%.
The matching figures for `COc1cc(C(=O)Nc2nc3c(cc4c5c(cccc53)CC4)s2)cc(OC)c1OC`: 17.8% and -3.53%.
Turning to `COc1ccc(CCN2C(=O)c3[nH]nc(-c4cc(Cl)c(C)cc4O)c3C2c2ccccc2F)cc1` (configuration not stated), the inhibition at 25 µM in series [2] is 16.2%; in series [3], -0.705%.
For `N#Cc1nc(Cc2cccc3ccccc23)oc1N1CCN(C(c2ccccc2)c2ccccc2)CC1`, the inhibition at 25 µM was 18.9% in series [2] and 7.13% in series [3].
The corresponding values for `O=C(NNc1cc(N2CCCC2)nc(N2CCCC2)n1)c1ccccc1` are 30.6% and 12%.
As to `COC(=O)c1ccc(Cl)c2c1C1C=CCC1C(c1cccc3ccccc13)N2` (configuration not stated), the inhibition at 25 µM in series [2] is -4.9%; in series [3], 12.1%.
With `O=C(CCc1ccccc1)c1ccccc1OCC(O)CN1CCCCC1` (configuration not stated), the inhibition at 25 µM in series [2] came to 0.25%; in series [3], 12.9%.
Consider `O=C(Nc1ccc(Br)cc1)Nc1cccc(Cl)c1`, for which the MIC90 in series [1] was 44.6 µM (≈ 14.5 µg/mL); in series [4], over 100 µM. The inhibition at 25 µM in series [2] turned out to be 38.6%; in series [3] it was 59.6%. The CC50 in series [5] was determined as 18.6 µM.
On to `Cc1ccc(Nc2nc(-c3ccccn3)cs2)cc1`, for which the MIC90 was 50.7 µM (≈ 13.6 µg/mL) in series [1] and over 100 µM in series [4]. Moreover, the inhibition at 25 µM in series [2] stood at 23%; in series [3], 59.3%.
Turning to `Cc1cc(NCCN2CCCCC2)c2ccc3ccccc3c2n1`, the MIC90 was 39.1 µM (≈ 12.5 µg/mL) in series [1] and over 100 µM in series [4]. Further, the inhibition at 25 µM in series [2] stood at 15.5%; in series [3], 71.1%. Further, the CC50 in series [5] came out at 2.04 µM.
Take `OC1=C2C(=Nc3ccccc3SC2c2ccccc2)c2ccccc21` (configuration not stated): the inhibition at 25 µM in series [2] was 14.1%; in series [3] it was 8.39%.
The corresponding values for `COc1cc(C(=O)Nc2ccc(-c3nc4ccccc4[nH]3)cc2)cc(OC)c1OC` are 19.1% and 27%.
`Cc1nc2ccccc2c(O)c1CC=C(Cl)Cl`: the MIC90 in series [1] is 14.3 µM (≈ 3.83 µg/mL); in series [4] it was over 100 µM. In addition, the results for the inhibition at 25 µM in series [2] and in series [3] were 0.782% and 91%, respectively. Further, in series [5], the CC50 worked out at 98.8 µM.
For the compound `CCOc1ccc(N2C(N)=NC(N)=NC2(C)C)cc1`, the inhibition at 25 µM is 8.77% in series [2] and -0.705% in series [3].
The corresponding values for `COc1cccc(Nc2nc(N)c3ccccc3n2)c1` are 11.4% and 6.04%.
The corresponding values for `COC(=O)c1ccc(C2C3=C(O)CC(c4ccc(F)cc4)CC3=Nc3ccccc3N2C(=O)c2ccccc2)cc1` (configuration not stated) are 18.9% and 28.3%.
The matching figures for `O=C(CCl)NCCOc1ccc(Cl)cc1Cl`: 25.3% and 35%.
For `Oc1ccc(-c2nc(-c3ccc4oc5ccc(-c6[nH]c(-c7ccc(O)cc7)nc6-c6ccccc6)cc5c4c3)c(-c3ccccc3)[nH]2)cc1`, the inhibition at 25 µM in series [2] came out at 13%; in series [3], 19.2%.
The matching figures for `CCOc1ccc(CN2CCN(CC(O)COc3ccc(OCC(O)CN4CCN(Cc5ccc(OCC)cc5)CC4)cc3)CC2)cc1` (configuration not stated): 17.5% and 13.2%.
The corresponding values for `CCCCNc1nc(NC(C)(C)C)nc(NC(C)(C)C)n1` are 42.1% and 32.8%.
The corresponding values for `COc1ccc(CCn2c(=N)c(C(=O)NCc3cccnc3)cc3c(=O)n4cccc(C)c4nc32)cc1` are 8.77% and 4.47%.
Regarding `CC(=O)c1sc(NC(=O)Nc2ccc(C)cc2C)nc1C`, the inhibition at 25 µM in series [2] amounted to 6.64%; in series [3] it was 10.3%.
For the compound `Cn1c(C(=O)c2cccc3ccccc23)nc2ccccc21`, the inhibition at 25 µM came out at 31.5% in series [2] and 4.31% in series [3].
Regarding `Oc1ccc2ccccc2c1CNc1nc2ccccc2[nH]1`, the MIC90 in series [1] worked out at 74.1 µM (≈ 21.4 µg/mL). Besides, the figures for the inhibition at 25 µM in series [2] and in series [3] were 35.9% and 76.1%, respectively. For the same compound, the CC50 in series [5] is 14.1 µM.
For `O=C(Nc1ccc(-c2nc3ccccc3[nH]2)cc1)c1ccc(Cl)c(Cl)c1`, the inhibition at 25 µM was 26.5% in series [2] and 9.8% in series [3].
The matching figures for `O=C(Nc1ccc(-c2nc3cc(NC(=O)c4ccc(Cl)cc4)ccc3[nH]2)cc1)c1ccc(Cl)cc1`: 17.6% and 11.7%.
Turning to `COc1ccccc1C(=O)ON=C(N)Cc1cccc2ccccc12`, the inhibition at 25 µM in series [2] was determined as 32.7%; in series [3], 52.3%.
The corresponding values for `COc1ccc(C(=O)C(CCC(CNC(C)(C)C)C(=O)c2ccc(OC)cc2)CNC(C)(C)C)cc1` (configuration not stated) are 21% and 10.9%.
As for `Cc1c(C)n(Cc2ccc(F)cc2)c2ccc(C(=O)NCc3ccco3)cc12`, the inhibition at 25 µM in series [2] amounted to 11.7%; in series [3] it was 69.5%. Also, the CC50 in series [5] is over 100 µM.
Turning to `COc1cc(C(=O)ON=C(N)Cc2cccc3ccccc23)cc(OC)c1OC`, the inhibition at 25 µM in series [2] stood at 24.2%; in series [3], 59.3%.
The matching figures for `CN1C=C(c2ccc3ccccc3n2)C(c2c[nH]c3ccccc23)c2ccccc21` (configuration not stated): 20.1% and 19.7%.
Regarding `Oc1c(C(Nc2ccccn2)c2cccc(Oc3ccccc3)c2)ccc2cccnc12` (configuration not stated), the inhibition at 25 µM in series [2] was 11.8%; in series [3], -15.4%.
The corresponding values for `COc1cc(-c2nc(-c3ccccc3)c(-c3ccccc3)[nH]2)cc(OC)c1O` are 18% and 17%.
The matching figures for `OC(CNC1CCCCC1)Cn1c2ccc(I)cc2c2cc(I)ccc21` (configuration not stated): 10.9% and 16.9%.
Regarding `CC1CCN(Cc2ccc(NC(=O)c3cc4ccc5cccnc5c4[nH]3)cc2)CC1`, the MIC90 is 33.3 µM (≈ 13.3 µg/mL) in series [1] and over 100 µM in series [4]. Further, the inhibition at 25 µM in series [2] was 13.8%; in series [3], 75.1%. For the same compound, the CC50 in series [5] was determined as 4.42 µM.
With `CCc1ccc(CNCC(O)c2ccccc2)cc1` (configuration not stated), the values for the inhibition at 25 µM in series [2] and in series [3] were 4.33% and 35.5%, respectively.
As to `O=C(Nc1nc(-c2ccccn2)cs1)c1ccccc1Br`, the MIC90 came out at 48.7 µM (≈ 17.5 µg/mL) in series [1] and 58.2 µM (≈ 21 µg/mL) in series [4]. Besides, the inhibition at 25 µM is 84.5% in series [2] and 95.3% in series [3].
Consider `CSc1ccccc1C(=O)Nc1nc(-c2ccccn2)cs1`, for which the values for the MIC90 in series [1] and in series [4] were 51.2 µM (≈ 16.8 µg/mL) and 79 µM (≈ 25.9 µg/mL), respectively. For the same compound, the inhibition at 25 µM is 66.8% in series [2] and 68.2% in series [3]. In addition, in series [5], the CC50 is 12.1 µM.
For `CCn1c2c(c(=N)c3c1CCC3)CCCC2`, the inhibition at 25 µM in series [2] is 8.24%; in series [3], 10.1%.
On to `CCOc1ccc(Nc2ccnc3cc(Cl)ccc23)cc1`, for which the inhibition at 25 µM in series [2] was 8.59%; in series [3] it was 54.6%.
The matching figures for `Oc1ccc(Br)cc1CN1CCN(Cc2ccc(Cl)cc2)CC1`: 17.6% and 19.7%.
The corresponding values for `COc1cc2c3cc1Oc1c(OC)c(OC)cc4c1C(Cc1ccc(O)c(c1)Oc1ccc(cc1)CC3N(C)CC2)N(C)CC4` (configuration not stated) are 18.5% and 3.53%.
For the compound `Cc1ccc(C)c(-c2csc(Nc3ccc(C)c(C)c3)n2)c1`, the results for the inhibition at 25 µM in series [2] and in series [3] were 9.48% and 12.5%, respectively.
The corresponding values for `CCOC(=O)c1cnc2ccc(OC)cc2c1NCc1ccccc1` are 23% and 40.2%.
As to `CCOC(=O)C1=CN(C)C=C(C(=O)OCC)C1c1cc(Br)c(OCC)c(OC)c1`, the inhibition at 25 µM was 10.7% in series [2] and -1.96% in series [3].
The matching figures for `CC(C)(C)c1ccc(C2CC3=Nc4ccccc4N(C(=O)c4ccccc4Cl)C(c4ccc(F)cc4)C3=C(O)C2)cc1` (configuration not stated): 14.4% and 1.49%.
The matching figures for `CN1CCN(c2nc(Nc3ccc(O)cc3)nc3ccccc23)CC1`: 6.46% and 8.7%.
On to `Nc1ccn([C@@H]2O[C@H](CO)[C@@H](O)[C@H]2O)c(=O)n1` [CYTIDINE], for which the inhibition at 25 µM in series [2] is 14.6%; in series [3], -3.06%.
The corresponding values for `O=C(Nc1cccc(C2=NCCN2)c1)Nc1cccc(C2=NCCN2)c1` [IMIDOCARB] are 11.1% and 5.56%.
The corresponding values for `CN(C)c1ccc(C(O)(c2ccc(N(C)C)cc2)c2ccc(N(C)C)cc2)cc1` [METHYLROSANILINE] are 59.8% and 28.6%.

The values are drawn from ChEMBL document CHEMBL2094260, “Malaria Box Tuberculosis Screening Data”.
